From ChEMBL document CHEMBL3399984, “Identification of Bacillus anthracis PurE inhibitors with antimicrobial activity” (Bioorg Med Chem, 2015)
Values after ≈ are worked out from the molar mass of the structure shown.

Experiments:
Bacillus anthracis [1] = experiment: Inhibition of recombinant Bacillus anthracis PurE assessed as inhibition of 4-carboxy-amino-imidazole ribonucleotide to N5-carboxy-amino-imidazole ribonucleotide conversion preincubated for 1.5 mins at 10 uM by mass spectrometry analysis
Francisella tularensis = experiment: Antimicrobial activity against Francisella tularensis BEI/ATCC UTAH 112 measured after overnight incubation; assay type: functional
Bacillus anthracis [2] = experiment: Inhibition of recombinant Bacillus anthracis PurE assessed as change in melting temperature at 100 uM after 10 to 30 mins by high-throughput thermal shift screening
Bacillus anthracis [3] = experiment: Antimicrobial activity against Bacillus anthracis deltaANR measured after overnight incubation; assay type: functional
Yersinia pestis = experiment: Antimicrobial activity against Yersinia pestis BEI/ATCC A1122 measured after overnight incubation; assay type: functional
Escherichia coli = experiment: Antimicrobial activity against TolC-deficient Escherichia coli BW25113 measured after overnight incubation; assay type: functional
Bacillus anthracis [4] = experiment: Bactericidal activity against Bacillus anthracis deltaANR measured after 72 hrs; assay type: functional
Bacillus anthracis [5] = experiment: Ratio of MBC to MIC for against Bacillus anthracis deltaANR measured after 72 hrs; assay type: functional
[6] = Ratio of MIC for Yersinia pestis BEI/ATCC A1122 to MIC for Bacillus anthracis deltaANR; assay type: functional
[7] = Ratio of MIC for Francisella tularensis BEI/ATCC UTAH 112 to MIC for Bacillus anthracis deltaANR; assay type: functional
Staphylococcus aureus [8] = experiment: Antimicrobial activity against methicillin-sensitive Staphylococcus aureus ATCC 29213 measured after overnight incubation; assay type: functional
Staphylococcus aureus [9] = experiment: Antimicrobial activity against methicillin-resistant Staphylococcus aureus ATCC 43300 measured after overnight incubation; assay type: functional
[10] = Binding affinity to Escherichia coli PurE
[11] = Binding affinity to Gallus gallus PurE

Row | SMILES | inhibition (Bacillus anthracis [1]) [%] | MIC (Francisella tularensis) [mg/L] | ΔTm (Bacillus anthracis [2]) [°C] | MIC (Bacillus anthracis [3]) [mg/L] | MIC (Yersinia pestis) [mg/L] | MIC (Escherichia coli) [mg/L] | MBC (Bacillus anthracis [4]) [mg/L] | MBC/MIC ratio (Bacillus anthracis [5]) [mg/L] | Ratio [6] | Ratio [7] | MIC (Staphylococcus aureus [8]) [mg/L] | MIC (Staphylococcus aureus [9]) [mg/L] | Ki [10] [µM] | Ki [11] [µM]
1 | COc1cccc(-c2nc(Cn3nnc(C(=O)NCc4ccc(Cl)cc4)c3N)c(C)o2)c1OC | 6 | > 12.5 | 1.2 | > 12.5 |  |  |  |  |  |  |  |  |  | 
2 | Cc1ccc(C)c(-c2nnc(NC(=O)c3cc(Cl)sc3Cl)o2)c1 | 20 | 1.6 (≈ 4.34 µM) | 1.1 | 0.05 (≈ 0.136 µM) | 3.1 (≈ 8.42 µM) | 0.07 (≈ 0.19 µM) | > 12.5 | > 4 | 10 | 10 | 0.78 (≈ 2.12 µM) | 1.95 (≈ 5.3 µM) |  | 
3 | COc1cccc(C(=O)Nc2ccc(-c3cn4ccsc4n3)cc2)c1OC | 17 | > 12.5 | 3 | > 12.5 | > 12.5 |  |  |  |  |  |  |  |  | 
4 | O=C(O)c1cn(C2CC2)c2cc(N3CCNCC3)c(F)cc2c1=O [CIPROFLOXACIN] |  | 0.03 (≈ 0.0905 µM) |  | 0.11 (≈ 0.332 µM) | 0.04 (≈ 0.121 µM) |  |  |  |  |  | 0.35 (≈ 1.06 µM) | 0.34 (≈ 1.03 µM) |  | 
5 | Cc1ccc(C)c(-c2nnc(NC(=O)c3cccc(Cl)c3)o2)c1 | 19 | 6.3 (≈ 19.2 µM) | 2.4 | 0.1 (≈ 0.305 µM) | > 12.5 | 0.02 (≈ 0.061 µM) | > 12.5 | > 4 | 10 | 10 | 0.2 (≈ 0.61 µM) | > 12.5 |  | 
6 | O=C(Oc1ccccc1)Oc1ccc(N(C(=O)Oc2ccccc2)S(=O)(=O)c2ccc3ccccc3c2)cc1Br | 28 |  | 5.2 | > 12.5 |  |  |  |  |  |  |  |  |  | 
7 | O=C(Cc1ccc(NC(=O)c2ccc(F)cc2Cl)cc1)NCc1cccs1 | 20 | > 12.5 | 1.8 | > 12.5 | > 12.5 |  |  |  |  |  |  |  |  | 
8 | Nc1c([N+](=O)[O-])ncn1[C@@H]1O[C@H](COP(=O)(O)O)[C@@H](O)[C@H]1O | 24 |  | 5.6 |  |  |  |  |  |  |  |  |  | 0.5 | 0.00034
9 | O=C(NCc1c(-c2ccc(Cl)cc2)nc2n1CCS2)c1cccs1 | 11 | > 12.5 | 4.7 | > 12.5 | > 12.5 |  |  |  |  |  |  |  |  | 
10 | Cc1sc2ccsc2[n+]1CC(=O)O.[Br-] | 17 | > 12.5 | 4.4 | > 12.5 | > 12.5 |  |  |  |  |  |  |  |  | 
11 | CC(=O)NC[C@H]1CN(c2ccc(N3CCOCC3)c(F)c2)C(=O)O1 [LINEZOLID] |  | 32 (≈ 94.9 µM) |  |  |  |  |  |  |  |  |  |  |  | 
12 | Cc1c(C(=O)Nc2nnc(-c3cc(Cl)ccc3Cl)o2)c(-c2ccccc2)nc2ccccc12 | 19 | 3.1 (≈ 6.52 µM) | 7.9 | 0.1 (≈ 0.21 µM) | > 12.5 | 0.39 (≈ 0.82 µM) | > 12.5 | > 4 | 10 | 10 | > 12.5 | 6.25 (≈ 13.1 µM) |  | 
13 | NS(=O)(=O)c1ccc(NC(=O)CSc2nnc(-c3ccccc3)o2)cc1 | 12 |  | 1.5 | > 12.5 |  |  |  |  |  |  |  |  |  | 
14 | O=C(Nc1cccc(C(F)(F)F)c1)N1CCN(c2ccc3nncn3n2)CC1 | 14 | > 12.5 | 3.1 | > 12.5 | > 12.5 |  |  |  |  |  |  |  |  | 
15 | COc1ccc(Cl)c(C(=O)Nc2nnc(-c3ccc(Br)cc3)o2)c1 | 15 | 1.2 (≈ 2.94 µM) | 1.4 | 0.78 (≈ 1.91 µM) | 3.1 (≈ 7.59 µM) | 0.39 (≈ 0.954 µM) | > 12.5 | > 4 | 10 | 10 | 1.56 (≈ 3.82 µM) | 3.13 (≈ 7.66 µM) |  | 
16 | CCCCC(CC)CNc1nc2c(c(=O)[nH]c(=O)n2C)n1CC(O)COc1ccc(C)c(C)c1 (stereo unspecified) | 7 | > 12.5 | 1.8 |  |  |  |  |  |  |  |  |  |  | 
